In patent US20240182444A1, “ANTI-VIRAL COMPOUNDS” (Aligos Therapeutics, Inc., priority 2022, published 2024):
Read-outs that look alike come from different tables or passages of the source.

Assays:
SARS-Cov-2 3CLpro = biological target: T1, SARS-Cov-2 3CLpro (Severe acute respiratory syndrome coronavirus 2, UniProt P0DTD1); assay: SARS-Cov-2 3CLpro protease assay (SAMDI-MS); type: biochemical
T1 construct: 3CLpro was added using a Multidrop Combi

[1] = tested on: human beta-coronavirus OC43; assay: OC43 coronavirus antiviral assay in HeLa cells; type: cell-based; conditions: Betacoronavirus 1, 144 h, OC43, 6 days at 33° C., cell-titer-glo
Protocol: (§1) The human beta-coronavirus OC43 was purchased from ATCC (Manassas, VA) and propagated using HCT-8 human colorectal epithelial cells (ATCC). HeLa human cervical epithelial cells (ATCC) were used as susceptible host cell lines and were cultured using EMEM media, supplemented with 10% fetal bovine serum (FBS), 1% (v/v) penicillin/streptomycin (P/S), 1% (v/v) HEPES and 1% (v/v) cellgro Glutagro™ supplement (all Corning, Manassas, VA) at 37° C. For the OC43 antiviral assay, 1.5×10^4 HeLa cells per well were plated in 100 μL complete media in white 96-well plates with clear bottoms at 37° C. for up to 24 h to facilitate attachment and allow cells to recover from seeding stresses. Next day, the cell culture medium was removed. Serially diluted compounds in 100 μL assay media (EMEM, 2% FBS, 1% P/S, 1% cellgro Glutagro™ supplement, 1% HEPES) were added to the cells and incubated for 4 h at 37° C. in a humidified 5% CO2 incubator. 100 μL of OC43 virus stock was diluted to a concentration known to produce optimal cytopathic effect, inducing 80-90% reduction in cell viability. 96-well plates were incubated for 6 days at 33° C.; each plate contains uninfected control wells as well as virus-infected wells that were not treated with compound. Cytotoxicity plates without the addition of OC43 virus were carried out in parallel. At the end of the incubation period, 100 μL cell culture supernatant was replaced with 100 μL cell-titer-glo reagent (Promega, Madison, WI) and incubated for at least 10 min at rt prior to measuring luminescence. Luminescence was measured on a Perkin Elmer (Waltham, MA) Envision plate reader. Antiviral % inhibition was calculated as follows: [(Compound treated cells infected sample)−(no compound infected control)]/[(Uninfected control)−(no compound infected control)]*100; Using GraphPad (San Diego, CA) prism software version 8.3.1, the antiviral dose-response plot was generated as a sigmoidal fit, log(inhibitor) vs response-variable slope (four parameters) model and the EC50 was calculated which is the predicted compound concentration corresponding to a 50% inhibition of the viral cytopathic effect.
(§2) Table 2 indicates related EC50 and CC50 values for the tested compounds ‘A’ indicates an EC50<100 nM, ‘B’ indicates an EC50 of ≥100 nM and <1000 nM, ‘C’ indicates an EC50≥1000 nM and <10000 nM and ‘D’ indicates an EC50≥10000 nM and <100000 nM. For CC50, the values are reported in micromolar (M), ‘A’ indicates a CC50≥10000 nM and ‘B’ indicates a CC50≥1 μM and <10 μM.

in vitro = conditions: human
[2] = Cytotoxicity in HeLa cells without OC43 virus; type: cell-based; conditions: human, HeLa cells (uninfected), in parallel
Protocol: as §1, §2

[3] = tested on: SARS-CoV-2 B.1.1.7 lineage; assay: microbe, parasite or virus in culture; type: cell-based; conditions: Severe acute respiratory syndrome coronavirus 2, 96 h; read-out: A549-dual_ACE2_TMPRSS2 (EC50)
[4] = 30 mins preincubation, duplex peptide substrates, read-out: SARS-Cov-2 (3CLpro IC50)
[5] = bound given in table footnote, read-out: SARS-Cov-2 activity (footnote of Table 1)

## CC(C)(C)[C@H](NC(=O)C(F)(F)F)C(=O)N1C[C@@H]2[C@H]3C[C@@H]([C@@H]2[C@H]1C(=O)NC(C#N)c1cncc2ccccc12)[C@H](F)C3 (stereo partly drawn) [Compound 7, (1S,2R,3S,6R,7S,9R)—N-[cyano(isoquinolin-4-yl)methyl]-4-[(2S)-3,3-dimethyl-2-(2,2,2-trifluoroacetamido)butanoyl]-9-fluoro-4-azatricyclo[5.2.1.0^{2,6}]decane-3-carboxamide]
SARS-Cov-2 3CLpro; [4]
  IC50: < 20 nM
[1]
  EC50: < 100 nM
In vitro
  CC50: > 1000 nM
[2]
  CC50 at 6 days: ≥ 10000 nM
[3]
  EC50: < 100 nM

## COc1cccc2cncc(C(C#N)NC(=O)[C@@H]3[C@@H](c4ccccc4)CCN3C(=O)[C@@H](NC(=O)C(F)(F)F)C(C)(C)C)c12 (some centres unmarked) [Compound 30]
SARS-Cov-2 3CLpro; [4]
  IC50: 20 to 200 nM
[1]
  EC50: 1000 to 10000 nM
In vitro
  CC50: > 1000 nM
[2]
  CC50 at 6 days: ≥ 10000 nM
[3]
  EC50: ≥ 1000 nM

## CC(C)(C)[C@H](NC(=O)C(F)(F)F)C(=O)N1CCC2(CC2)C[C@H]1C(=O)NC(C#N)c1cnn2ccccc12 (some centres unmarked) [Compound 18]
SARS-Cov-2 3CLpro; [4]
  IC50: < 20 nM
[1]
  EC50: 100 to 1000 nM
In vitro
  CC50: > 1000 nM
[2]
  CC50 at 6 days: ≥ 10000 nM
[3]
  EC50: 100 to 1000 nM

## N#CC(NC(=O)C1[C@@H]2[C@H](CN1C(=O)c1cnn(-c3ccccc3C(F)(F)F)c1)[C@H]1C[C@@H]2[C@H](F)C1)c1cncc2ccccc12 (stereo partly drawn) [Compound 12, (1S,2R,3S,6R,7S,9R)—N-[cyano(isoquinolin-4-yl)methyl]-9-fluoro-4-{1-[2-(trifluoromethyl)phenyl]pyrazole-4-carbonyl}-4-azatricyclo[5.2.1.0^{2,6}]decane-3-carboxamide]
SARS-Cov-2 3CLpro; [4]
  IC50: 20 to 200 nM
In vitro
  CC50: > 1000 nM
[3]
  EC50: ≥ 1000 nM

## Cn1cc(C(C#N)NC(=O)[C@@H]2[C@@H]3[C@H](CN2C(=O)[C@@H](NC(=O)C(F)(F)F)C(C)(C)C)[C@@H]2C=C[C@H]3C2)cn1 (stereo partly drawn) [Compound 6, (1R,2S,3S,6R,7S)—N-[cyano(1-methylpyrazol-4-yl)methyl]-4-[(2S)-3,3-dimethyl-2-(2,2,2-trifluoroacetamido)butanoyl]-4-azatricyclo[5.2.1.0^{2,6}]dec-8-ene-3-carboxamide]
SARS-Cov-2 3CLpro; [4]
  IC50: 20 to 200 nM
[1]
  EC50: 1000 to 10000 nM
In vitro
  CC50: > 1000 nM
[2]
  CC50 at 6 days: ≥ 10000 nM
[3]
  EC50: 100 to 1000 nM

## CC(C)(C)[C@H](NC(=O)C(F)(F)F)C(=O)N1C[C@H]2[C@@H]([C@H]1C(=O)NC(C#N)c1nc[nH]n1)[C@H]1C=C[C@@H]2C1 (stereo partly drawn) [Compound 4, (1R,2S,3S,6R,7S)—N-[cyano(1H-1,2,4-triazol-3-yl)methyl]-4-[(2S)-3,3-dimethyl-2-(2,2,2-trifluoroacetamido)butanoyl]-4-azatricyclo[5.2.1.0^{2,6}]dec-8-ene-3-carboxamide]
SARS-Cov-2 3CLpro; [4]
  IC50: 200 to 2000 nM
[1]
  EC50: 1000 to 10000 nM
[2]
  CC50 at 6 days: ≥ 10000 nM

## COc1cccc2cncc([C@@H](C#N)NC(=O)[C@@H]3[C@@H]4[C@H](CN3C(=O)[C@@H](NC(=O)C(F)(F)F)C(C)(C)C)[C@H]3C[C@@H]4[C@H](F)C3)c12 [Compound 28]
SARS-Cov-2 3CLpro; [4]
  IC50: < 20 nM
[1]
  EC50: < 100 nM
In vitro
  CC50: > 1000 nM
[2]
  CC50 at 6 days: ≥ 10000 nM
[3]
  EC50: < 100 nM

## CC(C)(C)[C@H](NC(=O)C(F)(F)F)C(=O)N1C[C@@H]2[C@H]3C[C@@H]([C@@H]2[C@H]1C(=O)NC1(C#N)CCCc2ccncc21)[C@H](F)C3 (some centres unmarked) [Compound 31]
SARS-Cov-2 3CLpro; [4]
  IC50: 2000 to 20000 nM
SARS-Cov-2 3CLpro; [5]
  IC50: > 2000 nM
[1]
  EC50: 1000 to 10000 nM
In vitro
  CC50: > 1000 nM
[2]
  CC50 at 6 days: ≥ 10000 nM
[3]
  EC50: ≥ 1000 nM

## N#CC(NC(=O)[C@@H]1[C@@H]2[C@H](CN1C(=O)[C@H](CC1CC1)NC(=O)C(F)(F)F)[C@H]1C[C@@H]2[C@H](F)C1)c1cnn2ccccc12 (some centres unmarked) [Compound 24]
SARS-Cov-2 3CLpro; [4]
  IC50: < 20 nM
[1]
  EC50: 100 to 1000 nM
In vitro
  CC50: > 1000 nM
[2]
  CC50 at 6 days: ≥ 10000 nM
[3]
  EC50: 100 to 1000 nM

## COc1cccn2ncc(C(C#N)NC(=O)[C@@H]3[C@@H]4[C@H](CN3C(=O)[C@@H](NC(=O)C(F)(F)F)C(C)(C)C)[C@H]3C[C@@H]4[C@H](F)C3)c12 (some centres unmarked) [Compound 19]
SARS-Cov-2 3CLpro; [4]
  IC50: < 20 nM
[1]
  EC50: 100 to 1000 nM
In vitro
  CC50: > 1000 nM
[2]
  CC50 at 6 days: ≥ 10000 nM
[3]
  EC50: < 100 nM

## CC(C)(C)[C@H](NC(=O)C(F)(F)F)C(=O)N1C[C@@H]2[C@@H]3C[C@H]([C@@H]2[C@H]1C(=O)NC(C#N)c1cncc(-c2ccccc2)c1)[C@H](F)C3 (some centres unmarked) [Compound 14]
[1]
  EC50: 10000 to 100000 nM
In vitro
  CC50: > 1000 nM
[2]
  CC50 at 6 days: ≥ 10000 nM
[3]
  EC50: 100 to 1000 nM

## CC(C)(C)[C@H](NC(=O)C(F)(F)F)C(=O)N1C[C@@H]2[C@@H]3CC([C@@H]2[C@H]1C(=O)NC(C#N)c1cncc(-c2ccccc2)c1)[C@H](F)C3 (some centres unmarked) [Compound 14]
SARS-Cov-2 3CLpro; [4]
  IC50: < 20 nM

## CC(C)(C)[C@H](NC(=O)C(F)(F)F)C(=O)N1C[C@@H]2[C@H]3C[C@@H]([C@@H]2[C@H]1C(=O)NC(C#N)c1cncc2c1OCCO2)[C@H](F)C3 (some centres unmarked) [Compound 27]
SARS-Cov-2 3CLpro; [4]
  IC50: 20 to 200 nM
[1]
  EC50: 1000 to 10000 nM
In vitro
  CC50: > 1000 nM
[2]
  CC50 at 6 days: ≥ 10000 nM
[3]
  EC50: ≥ 1000 nM

## C#CC(NC(=O)[C@@H]1[C@@H]2[C@H](CN1C(=O)[C@@H](NC(=O)C(F)(F)F)C(C)(C)C)[C@H]1C[C@@H]2[C@H](F)C1)c1cncc2ccccc12 (stereo partly drawn) [Compound 32, (1S,3aR,4S,6R,7S,7aR)-2-((S)-3,3-dimethyl-2-(2,2,2-trifluoroacetamido)butanoyl)-6-fluoro-N-(1-(isoquinolin-4-yl)prop-2-yn-1-yl)octahydro-1H-4,7-methanoisoindole-1-carboxamide]
SARS-Cov-2 3CLpro; [4]
  IC50: 20 to 200 nM

## CC(C)(C)[C@H](NC(=O)C(F)(F)F)C(=O)N1C[C@@H]2[C@H]3C[C@@H]([C@@H]2[C@H]1C(=O)NC(C#N)c1cncc(Cl)c1Cl)[C@H](F)C3 (stereo partly drawn) [Compound 10, (1S,2R,3S,6R,7S,9R)—N-[cyano(4,5-dichloropyridin-3-yl)methyl]-4-[(2S)-3,3-dimethyl-2-(2,2,2-trifluoroacetamido)butanoyl]-9-fluoro-4-azatricyclo[5.2.1.0^{2,6}]decane-3-carboxamide]
SARS-Cov-2 3CLpro; [4]
  IC50: < 20 nM
[1]
  EC50: 100 to 1000 nM
In vitro
  CC50: > 1000 nM
[2]
  CC50 at 6 days: ≥ 10000 nM
[3]
  EC50: ≥ 1000 nM

## CC(C)(C)[C@H](NC(=O)C(F)(F)F)C(=O)N1C[C@@H]2[C@H]3C[C@@H]([C@@H]2[C@H]1C(=O)NC(C#N)c1cncn1-c1ccccc1)[C@H](F)C3 (some centres unmarked) [Compound 23]
SARS-Cov-2 3CLpro; [4]
  IC50: 20 to 200 nM
SARS-Cov-2 3CLpro; [5]
  IC50: > 500 nM
In vitro
  CC50: > 1000 nM
[3]
  EC50: ≥ 1000 nM

## CC(C)(C)[C@H](NC(=O)C(F)(F)F)C(=O)N1C[C@@H]2[C@@H]3C[C@H]([C@@H]2[C@H]1C(=O)NC(C#N)c1cnn(-c2ccccc2)c1)[C@H](F)C3 (some centres unmarked) [Compound 13]
In vitro
  CC50: > 1000 nM
[3]
  EC50: ≥ 1000 nM

## CC(C)(C)[C@H](NC(=O)C(F)(F)F)C(=O)N1C[C@H]2[C@@H]([C@H]1C(=O)NC(C#N)c1cncc3ccccc13)C2(C)C (stereo partly drawn) [Compound 11, (1R,2S,5S)—N-[cyano(isoquinolin-4-yl)methyl]-3-[(2S)-3,3-dimethyl-2-(2,2,2-trifluoroacetamido)butanoyl]-6,6-dimethyl-3-azabicyclo[3.1.0]hexane-2-carboxamide]
[1]
  EC50: < 100 nM
In vitro
  CC50: > 1000 nM
[2]
  CC50 at 6 days: ≥ 10000 nM
[3]
  EC50: < 100 nM

## Cc1ncc2ccccc2c1C(C#N)NC(=O)[C@@H]1[C@@H]2[C@H](CN1C(=O)[C@@H](NC(=O)C(F)(F)F)C(C)(C)C)[C@@H]1C=C[C@H]2C1 (some centres unmarked) [Compound 21]
SARS-Cov-2 3CLpro; [4]
  IC50: 2000 to 20000 nM
In vitro
  CC50: > 1000 nM
[3]
  EC50: ≥ 1000 nM

## CC(C)(C)[C@H](NC(=O)C(F)(F)F)C(=O)N1C[C@@H]2[C@@H]3CC([C@@H]2[C@H]1C(=O)NC(C#N)c1cnn(-c2ccccc2)c1)[C@H](F)C3 (some centres unmarked) [Compound 13]
SARS-Cov-2 3CLpro; [4]
  IC50: 200 to 2000 nM

## CC(C)(C)[C@H](NC(=O)C(F)(F)F)C(=O)N1C[C@H]2[C@@H]([C@H]1C(=O)NC(C#N)c1cccc3ccccc13)[C@H]1C=C[C@@H]2C1 (some centres unmarked) [Compound 16]
SARS-Cov-2 3CLpro; [4]
  IC50: 200 to 2000 nM
In vitro
  CC50: > 1000 nM
[3]
  EC50: ≥ 1000 nM
